Results as given in patent publication US8871774B2, “Inhibitors of influenza viruses replication” (priority 2010, dated 2014).
pIC50: −log10 of the molar value.

Experiments:
[1] = tested on: influenza A virus (A/PR/8/34); experiment: cytopathic effect (CPE) assay, MDCK cell protection by ATP detection; assay type: cell-based; conditions: Influenza A virus; Table 2; mean IC50; MDCK cells, A/PR/8/34, 72 hours, 50% cell protection; read-out: Flu MDCK IC50
[2] = tested on: Influenza virus, strain A/PR/8/34; experiment: microbe, parasite or virus in culture; assay type: cell-based; conditions: unidentified influenza virus, PR/8, read-out: bDNA EC50 (uM)

Compound: O=C(O)[C@H]1CCCC2(CCCC2)[C@@H]1Nc1nc(-c2n[nH]c3ncc(F)cc23)ncc1F [Compound I-45]
- pIC50 [1]: > 5.48
- EC50 [2]: < 3.3 µM

Compound: O=C(O)[C@@H]1CCCC2(CCCC2)[C@H]1Nc1nc(-c2n[nH]c3ncc(F)cc23)ncc1F [Compound I-46]
- pIC50 [1]: > 5.48
- EC50 [2]: > 3.3 µM

Compound: O=C(N[C@@H]1CCC[C@H](Nc2nc(-c3n[nH]c4ncc(F)cc34)ncc2F)C1)c1csc(Cl)c1 [Compound I-47, 5-chloro-N-((1R,3S)-3-((5-fluoro-2-(5-fluoro-1H-pyrazolo[3,4-b]pyridin-3-yl)pyrimidin-4-yl)amino)cyclohexyl)thiophene-3-carboxamide]
- pIC50 [1]: > 5.48
- EC50 [2]: < 3.3 µM

Compound: O=C(O)C[C@H]1C2CCC(CC2)[C@@H]1Nc1nc(-c2n[nH]c3ncc(F)cc23)ncc1F [Compound I-48, 2-((2S,3S)-3-((5-fluoro-2-(5-fluoro-1H-pyrazolo[3,4-b]pyridin-3-yl)pyrimidin-4-yl)amino)bicyclo[2.2.2]octan-2-yl)acetic acid]
- pIC50 [1]: > 5.48
- EC50 [2]: < 3.3 µM
